Assay results as given in the NIST ThermoML archive (doi:10.1007/s10765-005-8096-3).

Experiment: refractive index (Na D-line) (dimensionless); xn = mol fraction of the nth substance listed
Details: 101 kPa, Liquid, Standard Abbe refractometry

CC(C)c1ccccc1 [isopropylbenzene] + CCCCOC(C)=O
refractive index
Details	293.15 K	298.15 K	303.15 K	308.15 K	313.15 K
x2 = 0.0521	1.48648	1.48385	1.48124	1.47872	1.47599
x2 = 0.0998	1.48203	1.47941	1.47677	1.47424	1.47156
x2 = 0.151	1.47724	1.47459	1.47198	1.46948	1.4668
x2 = 0.2043	1.47219	1.46954	1.46694	1.46442	1.46178
x2 = 0.2496	1.4679	1.46525	1.46266	1.46014	1.45753
x2 = 0.3036	1.46273	1.46014	1.45758	1.45505	1.45243
x2 = 0.3578	1.45755	1.45496	1.45242	1.44988	1.44725
x2 = 0.4021	1.45329	1.45068	1.44815	1.44562	1.44301
x2 = 0.4514	1.4485	1.44593	1.44338	1.44086	1.43827
x2 = 0.4994	1.44384	1.44127	1.43873	1.43623	1.43363
x2 = 0.555	1.43843	1.43587	1.43334	1.43083	1.42824
x2 = 0.6017	1.43384	1.4313	1.42878	1.42629	1.42372
x2 = 0.65	1.42906	1.42655	1.42403	1.42154	1.41898
x2 = 0.6996	1.42417	1.42165	1.41914	1.41673	1.41413
x2 = 0.7493	1.41919	1.4167	1.41421	1.41175	1.40924
x2 = 0.8007	1.4141	1.41161	1.40915	1.40668	1.40412
x2 = 0.8497	1.4092	1.40674	1.40425	1.4018	1.39927
x2 = 0.8992	1.40425	1.4018	1.39931	1.39691	1.39437
x2 = 0.95	1.39913	1.39675	1.39426	1.39185	1.3894
